Source: patent US5506239A, “Carbostyril derivative and platelets aggregation inhibitory agent” (Otsuka Pharmaceutical Co., Ltd., priority 1991, dated 1996)

Tests used:
[1] = tested on: platelets; test: Platelets aggregation inhibitory activity (method of Born et al.), ADP-induced, human PRP (Pharmacological Test I); format: cell-based, man; conditions: 7.5 μM ADP, 37° C., read-out: IC50 ADP (50% platelets aggregation inhibition)
Procedure: (§1) The platelets aggregation inhibitory activity of each test compound was measured by the method of Born et al. [J. Physiol., London, 162, 67 (1962)], using Platelets Aggregation Tracer manufactured by Nikoh Bioscience Co., Ltd.
(§2) 9 volumes of a blood collected from person was mixed with 1 volume of a 3.8% aqueous sodium citrate solution. Part of the mixture was subjected to centrifugation at 1,100 rpm for 10 minutes to obtain a platelet rich plasma (PRP). The remainder of the mixture was also subjected to centrifugation at 3,000 rpm for 10 minutes to obtain a platelet poor plasma (PPP).
(§3) The number of platelets in the PRP was measured using Coulter Counter manufactured by Coulter Electronics Inc. Then, the PRP was diluted with the PPP so that the number of platelets in the dilution became 300,000, whereby a PRP solution was prepared.
(§4) 200 μl of this PRP solution and 2 ml of a solution containing a test compound at a given concentration were placed in an aggregation measurement cell and heated at 37° C. for 1 minute. Thereto was added 20 μl of adenosine diphosphate (ADP manufactured by Sigma Co.) or a collagen suspension (Collagen Reagent manufactured by Horm, Hormon-Chemie, Gmbh) to induce aggregation of platelets. The resulting mixture in the cell was measured for change of transmittance, after which a platelets aggregation curve was prepared. Incidentaly, the concentration of ADP or collagen was selected so that the final Concentration became 7.5 μM or 20 μg/ml.
(§5) Using the platelets aggregation curve, there was calculated a maximum aggregation rate (MAR) of platelets using the followoing formula: […]
(§6) wherein a represents a transmittance of the PRP obtained in the same manner; c represents a transmittance of the PPP obtained in the same manner; and b represents a transmittance at the maximum change, of the PRP solution containng the test compound and the aggregation inducer.
(§7) A MAR was also calculated as above, for the control containing no test compound.
(§8) Using the above two MARs, there were calculated platelets aggregation inhibitions (%) of each test compound at various concentrations using the following formula.
(§9) Inhibition=[1-(MAR of PRP solution containing test compound)/(MAR of PRP
(§10) solution containing no test compound)]×100
(§11) Using the above obtained platelets aggregation inhibitions (%) of each test compound at various concentrations, there was calculated a concentration (IC50) of each test compound for 50% platelets aggregation inhibition.

[2] = tested on: platelets; test: Inhibition of collagen-induced platelets adhesion, washed platelets (Pharmacological Test III); format: cell-based, man; conditions: Platelet, 50 μg/ml collagen, human washed platelets, read-out: Inhibition (%) of collagen-induced platelets adherence
Procedure: A blood was collected from a healthy person with normal platelets function by addition of 0.1% disodium ethylenediaminetetraacetate (EDTA.4Na) and immediately subjected to separation of a platelet rich plasma (PRP). The PRP was washed twice with a Tyrode's buffer solution (50mM TRIS, 0.1% EDTA, Ca (-), Mg (-), 0.14% BSA added, pH=7.4), and suspended in the buffer solution so that the number of platelets in the resulting suspension became 300, 000/ml, to obtain a platelets suspension (EDTA-WP). 4 mg of Type I manufactured by Sigma Co., derived from a bovine skin was dissolved in 0.25 ml of acetic acid (83.5 mM); 8 ml of distilled water was added thereto; an ultrasonic wave was applied to the mixture at 4° C. for 2 minutes; 5 ml of the supernatant liquid was separated as a collagen solution. Each test compound was dissolved in dimethylformamide (DMF) so as to give a concentration of at least […] when possible, to prepare a test compound solution. The change in turbidity of platelets suspension was recorded as a change in transmitted light emitted from a glass cell containing the suspension, using a platelets aggregation tracer manufactured by Nikoh Bioscience K.K., generally used in the test of platelets aggregation function, whereby the adherence of platelets was measured. Incidentally, in recoridng the change in transmitted light, the sensitivity of the recorder was 5 times as high as that used generally. 200 μl of the EDTA-WP was placed in a glass cell exclusively used for the above platelets aggregation tester. Further, 1 μl of the test compound solution was added. The mixture was incubated at room temperature for 5 minutes. Then, the cell was set in the platelets aggregation tracer and was allowed to stand for 1 minute until the temperature became 37° C. Thereafter, about 20 μl (50 μg/ml) of the collagen solution was added, and the adherence of platelets were measured.
The inhibitions (%) of collagen-induced platelets adhesion by each test compound at various concentrations were calculated using the following formula.
Inhibition (%)=[1-(platelets adherence when test compound added)/
(platelets adherence when no test compound added)]×100

[3] = tested on: platelets; test: Platelets aggregation inhibitory activity (method of Born et al.), collagen-induced, human PRP (Pharmacological Test I); format: cell-based, man; conditions: 20 μg/ml collagen, 37° C., read-out: IC50 Collagen (50% platelets aggregation inhibition)
Procedure: as §1, §2, §3, §4, §5, §6, §7, §8, §9, §10, §11

[4] = tested on: mongrel dogs; conditions: dog, in vivo, 300 mg/kg
Procedure: The heart rate-increasing activity and blood pressure hypotensive activity of each test compound were measured by the following method, using mongrel dogs each weighing 10-20 kg. That is, said dogs were anesthesized by intravenous injection of pentobarbital sodium, then fixed at the back, and tested under artificial respiration. The blood pressures of the dogs were measured by a blood pressure measuring transducer (P23×L manufactured by Gould Statham Instruments, Inc.) via cannula inserted into the femoral artery. The heart rates of the dogs were measured using the pulse wave of the blood pressure of each dog, via a tachometer. The signals of these testng apparatuses were recorded on a thermal pen-type recorder (Recti-Horize 8K manufactured by Nippon Denki-San-ei Sha).
Some of the compounds obtained in the above Examples were used as test compounds. […] Then, the heart rate of each dog was measured according to the above method and a maximum change in heart rate was calculated.

| Structure (SMILES) | IC50 ([1]; Homo sapiens, Platelet) | IC50 ([3]; Homo sapiens, Platelet) | also measured |
| --- | --- | --- | --- |
| O=C(CN(CCCCCOc1ccc2[nH]c(=O)ccc2c1)Cc1ccccc1)N1CCC(O)CC1 [Example 20] | 2 µM | 1.2 µM | inhibition at 10 µM [2]: 49% |
| O=c1ccc2cc(OCCCCN(Cc3ccccc3)S(=O)(=O)CCCn3cncn3)ccc2[nH]1 [Example 123] | 17 µM | 9.5 µM | inhibition at 10 µM [2]: 39% |
| CN(C1CCCCC1)S(=O)(=O)CCCOc1ccc2[nH]c(=O)ccc2c1 [Example 76] |  |  | inhibition at 30 µM [2]: 35% |
| O=C(NCC1CCCCC1)[C@@H]1C[C@@H](O)CN1CCCCOc1ccc2[nH]c(=O)ccc2c1 [Example 75] | 9.1 µM | 13 µM | inhibition at 300 µM ([2]; dose 300 μM): 57% |
| O=c1ccc2cc(OCCCCN(Cc3ccccc3)S(=O)(=O)CCN3CCC(O)CC3)ccc2[nH]1 [Example 119] | 20 µM | 20 µM | inhibition at 10 µM [2]: 40% |
| O=c1ccc2cc(OCCCS(=O)(=O)N(CCN3CCC(O)CC3)C3CCCCC3)ccc2[nH]1 [Example 86] | 8 µM | 12 µM | inhibition at 10 µM [2]: 47% |
| O=c1ccc2cc(OCCCCN(CCN3CCC(O)CC3)CC3CCCCC3)ccc2[nH]1 [Example 23] | 8 µM | 9.5 µM | Maximum change in heart rate [4]: -2 beats/minute |
| O=c1ccc2cc(OCCCS(=O)(=O)N(CCN3CCC(O)CC3)Cc3ccccc3)ccc2[nH]1 [Example 83] | 11 µM | 4.3 µM | Maximum change in heart rate [4]: 9 beats/minute |
| O=C(O)CN(CCCCOc1ccc2[nH]c(=O)ccc2c1)CC1CCCCCCC1 [Example 64] | 9 µM | 10 µM | inhibition at 30 µM [2]: 31% |
| O=c1ccc2cc(OCCCCN(CCN3CCC(O)CC3)S(=O)(=O)CC3CCCCC3)ccc2[nH]1 [Example 130] | 14 µM | 13 µM | inhibition at 10 µM [2]: 43% |
| O=c1ccc2cc(OCCCCN(Cc3ccccc3)S(=O)(=O)CCn3cncn3)ccc2[nH]1 [Example 121] |  |  | inhibition at 30 µM [2]: 38% |
| COC(=O)[C@@H]1C[C@@H](O)CN1CCCCOc1ccc2[nH]c(=O)ccc2c1 [Example 73] | 25 µM | 6.9 µM | inhibition at 100 µM ([2]; dose 100 μM): 36% |
| O=c1ccc2cc(OCCCCN(CCN3CCC(O)CC3)CC3CCCCCCC3)ccc2[nH]1 [Example 16] |  |  | IC50 [1]: 6.3 µM; inhibition at 10 µM [2]: 48%; IC50 [3]: 7.4 µM |
| O=c1ccc2cc(OCCCS(=O)(=O)N(CCN3CCC(O)CC3)CC3CCCCCCC3)ccc2[nH]1 [Example 78] | 1.4 µM | 0.38 µM |  |
| O=c1ccc2cc(OCCCCN(CCN3CCC(O)CC3)C3CCCCC3)ccc2[nH]1 [Example 26] | 15 µM | 14 µM |  |
| CN(C)C(=O)[C@@H]1CCCN1CCN(CCCCCOc1ccc2[nH]c(=O)ccc2c1)Cc1ccccc1 [Example 53] | 11 µM | 13 µM | inhibition at 30 µM [2]: 35% |
| O=C(CN(CCCCOc1ccc2[nH]c(=O)ccc2c1)CC1CCCCCCC1)N1CCC(O)CC1 [Example 19] | 6.1 µM | 5.3 µM | Maximum change in heart rate [4]: 24 beats/minute |
| O=c1ccc2cc(OCCCCCN(CCN3CCC(O)CC3)Cc3ccccc3)ccc2[nH]1 [Example 29] | 12 µM | 6.3 µM |  |
| O=c1ccc2cc(OCCCCN(CCN3CCC(O)CC3)CC3CCCCCCC3)ccc2[nH]1 [Example 15] | 10 µM |  | Maximum change in heart rate [4]: 1 beats/minute; IC50 [3]: 3.6 µM |
| O=c1ccc2cc(OCCCCN(Cc3ccccc3)S(=O)(=O)CCCN3CCC[C@H]3CO)ccc2[nH]1 [Example 126] | 10 µM | 15 µM |  |
| O=c1ccc2cc(OCCCCN(CC(O)CO)CC3CCCCC3)ccc2[nH]1 (centres unmarked) [Example 68] | 15 µM | 7.1 µM | Maximum change in heart rate [4]: 30 beats/minute |
| O=c1ccc2cc(OCCCCS(=O)(=O)N(CCN3CCC(O)CC3)Cc3cccs3)ccc2[nH]1 [Example 90] | 5.3 µM | 5.4 µM |  |
| O=c1ccc2cc(OCCCS(=O)(=O)N(CCN3CCC[C@H]3CO)CC3CCCCCCC3)ccc2[nH]1 [Example 103] | 2.6 µM | 3.2 µM |  |
| CC(=O)NCCN(CC1CCCCCCC1)S(=O)(=O)CCCOc1ccc2[nH]c(=O)ccc2c1 [Example 111] | 2.2 µM | 2.9 µM |  |
| O=c1ccc2cc(OCCCNC(=S)N(CCN3CCC(O)CC3)CC3CCCCCCC3)ccc2[nH]1 [Example 132] | 2.4 µM | 1.8 µM |  |
| O=c1ccc2cc(OCCCCS(=O)(=O)N(CCNCCO)CC3CCCCCCC3)ccc2[nH]1 [Example 108] | 2.9 µM | 2 µM |  |
| O=c1ccc2cc(OCCCCCS(=O)(=O)N(CCN3CCC(O)CC3)CC3CCCCCCC3)ccc2[nH]1 [Example 80] | 13 µM | 15 µM |  |
| COc1ccc(CN(CCN2CCC(O)CC2)S(=O)(=O)CCCCOc2ccc3[nH]c(=O)ccc3c2)cc1OC [Example 96] | 8.7 µM | 6.5 µM |  |
| O=C(c1ccccc1)N(CCCCOc1ccc2[nH]c(=O)ccc2c1)CCN1CCC(O)CC1 [Example 42] | 20 µM | 13 µM |  |
